pIC50: −log10 of the molar value. Bounds are passed on as bounds.

This note sets out measurements from ChEMBL document CHEMBL2150845, “BACE Inhibitors: Potential Treatment of Alzheimer's Disease, Dementia, and Related Neurodegenerative Disorders (A): 5,6-Dihydroimidazo[1,2-a]pyrazin-8-yl-amine Derivatives: Patent Highlight” (ACS Med Chem Lett, 2012).

The target in the assay is Beta-secretase 1 (Homo sapiens, UniProt P56817). Nature of the assay: Inhibition of BACE1 by FRET assay.
Sequence of Beta-secretase 1 (P56817 whole entry): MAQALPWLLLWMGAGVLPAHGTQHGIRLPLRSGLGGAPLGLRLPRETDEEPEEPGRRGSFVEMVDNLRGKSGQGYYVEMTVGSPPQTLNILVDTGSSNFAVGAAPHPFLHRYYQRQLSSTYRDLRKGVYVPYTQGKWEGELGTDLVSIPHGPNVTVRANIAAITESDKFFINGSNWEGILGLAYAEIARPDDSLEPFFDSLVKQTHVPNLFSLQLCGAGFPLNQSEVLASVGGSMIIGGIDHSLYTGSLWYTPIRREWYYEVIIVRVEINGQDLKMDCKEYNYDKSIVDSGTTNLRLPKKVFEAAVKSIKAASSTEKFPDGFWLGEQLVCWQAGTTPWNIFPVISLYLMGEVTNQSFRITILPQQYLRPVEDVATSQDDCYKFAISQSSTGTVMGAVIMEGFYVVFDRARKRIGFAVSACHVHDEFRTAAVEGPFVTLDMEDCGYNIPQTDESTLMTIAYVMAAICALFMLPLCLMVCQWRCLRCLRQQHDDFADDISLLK

In turn, `C[C@@]1(c2cc(NC(=O)c3ccc(C#N)cn3)ccc2F)Cn2c(C#N)cnc2C(N)=N1` had a pIC50 of 7.41.

The molecule `C[C@@]1(c2cc(NC(=O)c3ccn(C(F)F)n3)ccc2F)Cn2c(C#N)cnc2C(N)=N1` showed a pIC50 of 7.35. With `C[C@@]1(c2cc(NC(=O)c3ccn(C(F)F)n3)ccc2F)Cn2cc(C(F)(F)F)nc2C(N)=N1` the figure was 7.33.

Consider `NC1=N[C@@](c2cc(NC(=O)c3ccc(F)cn3)ccc2F)(C(F)F)Cn2ccnc21`, for which the pIC50 is below 4.52.

As usually defined, the pIC50 is −log10 of the IC50, conventionally taken in molar units. The low end stands for a large IC50, the high end for a small IC50.
